For five compounds, Kd results are on record in PMC3568244 (Molecular and cellular endocrinology, 2012).

Like-named read-outs stand apart in the source and are kept apart here.

Holding throughout (experiment): spectral binding titration
Experiment [1] addresses T1, CYP11A1 (Bos taurus, UniProt P00189).
T1 sequence (P00189 40-520): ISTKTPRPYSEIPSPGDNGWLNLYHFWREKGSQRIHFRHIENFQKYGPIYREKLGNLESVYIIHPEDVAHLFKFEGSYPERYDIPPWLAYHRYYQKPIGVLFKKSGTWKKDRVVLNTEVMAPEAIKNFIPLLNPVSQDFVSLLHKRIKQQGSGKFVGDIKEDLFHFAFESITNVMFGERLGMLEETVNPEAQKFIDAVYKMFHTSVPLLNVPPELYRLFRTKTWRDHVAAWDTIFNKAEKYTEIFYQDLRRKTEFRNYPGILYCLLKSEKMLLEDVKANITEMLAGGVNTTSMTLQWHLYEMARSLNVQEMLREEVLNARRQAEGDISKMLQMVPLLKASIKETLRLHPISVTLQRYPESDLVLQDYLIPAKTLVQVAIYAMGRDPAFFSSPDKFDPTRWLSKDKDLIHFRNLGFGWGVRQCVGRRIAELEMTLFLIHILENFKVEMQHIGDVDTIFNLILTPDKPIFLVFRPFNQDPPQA

For experiment [2], the target named is T1, CYP11A1. This is another data set of the same source.
For experiment [3], the target named is T1, CYP11A1. This is another data set of the same source.

Take `CC(=O)N1CCN(c2ccc(OC[C@H]3CO[C@@](Cn4ccnc4)(c4ccc(Cl)cc4Cl)O3)cc2)CC1` (racemic) [Ketoconazole]: at CYP11A1 [1], the Kd – broadly, the concentration at which binding is half-saturated – turned out to be 1.5 µM.
On the same count and under the same terms, with `CC[C@@H]([C@H](C)O)n1ncn(-c2ccc(N3CCN(c4ccc(OC[C@@H]5CO[C@@](Cn6cncn6)(c6ccc(F)cc6F)C5)cc4)CC3)cc2)c1=O` [Posaconazole] the figure was 1 µM.
For `CC(C)CCC[C@@H](C)[C@H]1CC[C@H]2[C@@H]3CC=C4C[C@@H](O)CC[C@]4(C)[C@H]3CC[C@]12C` [cholesterol], the Kd on CYP11A1 [2] is 0.2 µM.
In turn, `Cc1cccc([C@H](C)c2cnc[nH]2)c1C` [Dexmedetomidine] gave a Kd on CYP11A1 [3] of 7 µM.
The same measure, in the same setting: with `NC(=NCc1ccc(Cl)cc1)SCCCc1cnc[nH]1` [Clobenpropit] the figure was 18 µM.
